From ChEMBL document CHEMBL1201862, “PubChem BioAssay data set” (2004)
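All cell lines were grown in 96-well plates and treated with compound for 48 hours. GI50 = concentration required for 50% inhibition of growth.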 The source made the active and inactive calls. Rule as the data show it: active = GI50 up to about 1.1 µM and inactive = higher.

How the values were obtained:
Assay in all cases: NCI-60 cell line screen, 48 h
DMS-114 = tested on: DMS-114
DLD-1 = tested on: DLD-1
LOX IMVI = tested on: LOX IMVI
KM12 = tested on: KM12
A549 = tested on: A549
HOP-18 = tested on: HOP-18
XF498 = tested on: XF498
SNB-19 = tested on: SNB-19
HCC 2998 = tested on: HCC 2998
COLO 205 = tested on: COLO 205
ACHN = tested on: ACHN
K562 = tested on: K562
UO-31 = tested on: UO-31
TK-10 = tested on: TK-10
NCI-H460 = tested on: NCI-H460
NCI-H23 = tested on: NCI-H23
SW-620 = tested on: SW-620
SN12C = tested on: SN12C
HOP-92 = tested on: HOP-92
OVCAR-4 = tested on: OVCAR-4
SNB-78 = tested on: SNB-78
M14 = tested on: M14
HT-29 = tested on: HT-29
KM-20L2 = tested on: KM-20L2
OVCAR-8 = tested on: OVCAR-8
CCRF-CEM = tested on: CCRF-CEM
OVCAR-5 = tested on: OVCAR-5
SNB-75 = tested on: SNB-75
SF-268 = tested on: SF-268
SK-MEL-2 = tested on: SK-MEL-2
786-0 = tested on: 786-0
EKVX = tested on: EKVX
HOP-62 = tested on: HOP-62
LXFL 529 = tested on: LXFL 529
SK-OV-3 = tested on: SK-OV-3
HCT-15 = tested on: HCT-15
SK-MEL-5 = tested on: SK-MEL-5
DMS-273 = tested on: DMS-273
RXF 393 = tested on: RXF 393
CAKI-1 = tested on: CAKI-1
NCI-H226 = tested on: NCI-H226
Malme-3M = tested on: Malme-3M
NCI-H522 = tested on: NCI-H522
HL-60 = tested on: HL-60
MOLT-4 = tested on: MOLT-4
UACC-257 = tested on: UACC-257
U-251 = tested on: U-251
OVCAR-3 = tested on: OVCAR-3
SF-295 = tested on: SF-295
SK-MEL-28 = tested on: SK-MEL-28
RPMI-8226 = tested on: RPMI-8226
UACC-62 = tested on: UACC-62
IGROV-1 = tested on: IGROV-1
A498 = tested on: A498
SR = tested on: SR
SF-539 = tested on: SF-539
HCT-116 = tested on: HCT-116
MCF7 = tested on: MCF7
NCI/ADR-RES = tested on: NCI/ADR-RES
M19-MEL = tested on: M19-MEL

## O=C(CC1(O)C(=O)Nc2c(Cl)cccc21)c1ccccc1 (centres undefined)
DMS-114
  GI50: > 100 µM (inactive)
DLD-1
  GI50: > 100 µM (inactive)
LOX IMVI
  GI50: > 100 µM (inactive)
KM12
  GI50: > 100 µM (inactive)
A549
  GI50: > 100 µM (inactive)
HOP-18
  GI50: > 100 µM (inactive)
XF498
  GI50: > 100 µM (inactive)
SNB-19
  GI50: > 100 µM (inactive)
HCC 2998
  GI50: > 100 µM (inactive)
COLO 205
  GI50: > 100 µM (inactive)
ACHN
  GI50: > 100 µM (inactive)
K562
  GI50: > 100 µM (inactive)
UO-31
  GI50: > 100 µM (inactive)
TK-10
  GI50: > 100 µM (inactive)
NCI-H460
  GI50: > 100 µM (inactive)
NCI-H23
  GI50: > 100 µM (inactive)
SW-620
  GI50: 76.4 µM (inactive)
SN12C
  GI50: > 100 µM (inactive)
HOP-92
  GI50: > 100 µM (inactive)
OVCAR-4
  GI50: 60 µM (inactive)
SNB-78
  GI50: > 100 µM (inactive)
M14
  GI50: > 100 µM (inactive)
HT-29
  GI50: 84.7 µM (inactive)
KM-20L2
  GI50: > 100 µM (inactive)
OVCAR-8
  GI50: > 100 µM (inactive)
CCRF-CEM
  GI50: > 100 µM (inactive)
OVCAR-5
  GI50: > 100 µM (inactive)
SNB-75
  GI50: 85.9 µM (inactive)
SF-268
  GI50: > 100 µM (inactive)
SK-MEL-2
  GI50: > 100 µM (inactive)
786-0
  GI50: > 100 µM (inactive)
EKVX
  GI50: > 100 µM (inactive)
HOP-62
  GI50: > 100 µM (inactive)
LXFL 529
  GI50: > 100 µM (inactive)
SK-OV-3
  GI50: > 100 µM (inactive)
HCT-15
  GI50: > 100 µM
SK-MEL-5
  GI50: > 100 µM (inactive)
DMS-273
  GI50: > 100 µM (inactive)
RXF 393
  GI50: > 100 µM (inactive)
CAKI-1
  GI50: > 100 µM (inactive)
NCI-H226
  GI50: > 100 µM (inactive)
Malme-3M
  GI50: > 100 µM (inactive)
NCI-H522
  GI50: > 100 µM (inactive)
HL-60
  GI50: > 100 µM (inactive)
MOLT-4
  GI50: > 100 µM (inactive)
UACC-257
  GI50: > 100 µM (inactive)
U-251
  GI50: > 100 µM (inactive)
OVCAR-3
  GI50: > 100 µM (inactive)
SF-295
  GI50: > 100 µM (inactive)
SK-MEL-28
  GI50: > 100 µM (inactive)
RPMI-8226
  GI50: 49.3 µM (inactive)

## C/C=C/CC(S(=O)(=O)c1ccccc1)S(=O)(=O)c1ccccc1
DMS-114
  GI50: 14 µM (inactive)
DLD-1
  GI50: > 100 µM (inactive)
LOX IMVI
  GI50: > 100 µM (inactive)
KM12
  GI50: > 100 µM (inactive)
A549
  GI50: > 100 µM (inactive)
HOP-18
  GI50: > 100 µM (inactive)
XF498
  GI50: > 100 µM (inactive)
UACC-62
  GI50: 36.1 µM (inactive)
SNB-19
  GI50: > 100 µM (inactive)
HCC 2998
  GI50: > 100 µM (inactive)
COLO 205
  GI50: > 100 µM (inactive)
ACHN
  GI50: > 100 µM (inactive)
K562
  GI50: > 100 µM (inactive)
UO-31
  GI50: > 100 µM (inactive)
TK-10
  GI50: > 100 µM (inactive)
NCI-H460
  GI50: > 100 µM (inactive)
NCI-H23
  GI50: > 100 µM (inactive)
SW-620
  GI50: > 100 µM (inactive)
SN12C
  GI50: > 100 µM (inactive)
HOP-92
  GI50: > 100 µM (inactive)
OVCAR-4
  GI50: > 100 µM (inactive)
M14
  GI50: > 100 µM (inactive)
HT-29
  GI50: > 100 µM (inactive)
IGROV-1
  GI50: > 100 µM (inactive)
A498
  GI50: > 100 µM (inactive)
KM-20L2
  GI50: > 100 µM (inactive)
OVCAR-8
  GI50: > 100 µM (inactive)
CCRF-CEM
  GI50: 87.1 µM (inactive)
OVCAR-5
  GI50: > 100 µM (inactive)
SNB-75
  GI50: 32.7 µM (inactive)
SK-MEL-2
  GI50: > 100 µM (inactive)
EKVX
  GI50: > 100 µM (inactive)
HOP-62
  GI50: 85.5 µM (inactive)
SK-OV-3
  GI50: > 100 µM (inactive)
HCT-15
  GI50: 60 µM
SK-MEL-5
  GI50: > 100 µM (inactive)
DMS-273
  GI50: > 100 µM (inactive)
RXF 393
  GI50: > 100 µM (inactive)
NCI-H226
  GI50: > 100 µM (inactive)
SR
  GI50: > 100 µM (inactive)
NCI-H522
  GI50: 12 µM (inactive)
HL-60
  GI50: > 100 µM (inactive)
MOLT-4
  GI50: > 100 µM (inactive)
UACC-257
  GI50: > 100 µM (inactive)
U-251
  GI50: 33.3 µM (inactive)
OVCAR-3
  GI50: > 100 µM (inactive)
SF-539
  GI50: > 100 µM (inactive)
SF-295
  GI50: > 100 µM (inactive)
SK-MEL-28
  GI50: > 100 µM (inactive)
RPMI-8226
  GI50: 95.3 µM (inactive)
HCT-116
  GI50: > 100 µM (inactive)

## O=C(NC/C=C/CO)c1ccccc1
DMS-114
  GI50: > 100 µM (inactive)
MCF7
  GI50: > 100 µM (inactive)
DLD-1
  GI50: > 100 µM (inactive)
LOX IMVI
  GI50: > 100 µM (inactive)
KM12
  GI50: > 100 µM (inactive)
A549
  GI50: > 100 µM (inactive)
HOP-18
  GI50: > 100 µM (inactive)
XF498
  GI50: > 100 µM (inactive)
UACC-62
  GI50: > 100 µM (inactive)
SNB-19
  GI50: > 100 µM (inactive)
HCC 2998
  GI50: > 100 µM (inactive)
COLO 205
  GI50: > 100 µM (inactive)
K562
  GI50: > 100 µM (inactive)
UO-31
  GI50: > 100 µM (inactive)
NCI-H460
  GI50: > 100 µM (inactive)
NCI-H23
  GI50: > 100 µM (inactive)
SW-620
  GI50: > 100 µM (inactive)
SN12C
  GI50: > 100 µM (inactive)
OVCAR-4
  GI50: > 100 µM (inactive)
SNB-78
  GI50: > 100 µM (inactive)
HT-29
  GI50: > 100 µM (inactive)
IGROV-1
  GI50: > 100 µM (inactive)
A498
  GI50: > 100 µM (inactive)
KM-20L2
  GI50: > 100 µM (inactive)
OVCAR-8
  GI50: > 100 µM (inactive)
CCRF-CEM
  GI50: > 100 µM (inactive)
OVCAR-5
  GI50: > 100 µM (inactive)
SNB-75
  GI50: 65.8 µM (inactive)
SF-268
  GI50: > 100 µM (inactive)
SK-MEL-2
  GI50: > 100 µM (inactive)
EKVX
  GI50: > 100 µM (inactive)
HOP-62
  GI50: > 100 µM (inactive)
SK-OV-3
  GI50: > 100 µM (inactive)
HCT-15
  GI50: > 100 µM
SK-MEL-5
  GI50: > 100 µM (inactive)
DMS-273
  GI50: > 100 µM (inactive)
RXF 393
  GI50: > 100 µM (inactive)
NCI-H226
  GI50: > 100 µM (inactive)
NCI/ADR-RES
  GI50: > 100 µM (inactive)
Malme-3M
  GI50: > 100 µM (inactive)
NCI-H522
  GI50: > 100 µM (inactive)
HL-60
  GI50: > 100 µM (inactive)
MOLT-4
  GI50: > 100 µM (inactive)
UACC-257
  GI50: > 100 µM (inactive)
U-251
  GI50: > 100 µM (inactive)
OVCAR-3
  GI50: > 100 µM (inactive)
SF-539
  GI50: > 100 µM (inactive)
SF-295
  GI50: > 100 µM (inactive)
SK-MEL-28
  GI50: > 100 µM (inactive)
RPMI-8226
  GI50: > 100 µM (inactive)
HCT-116
  GI50: > 100 µM (inactive)
M19-MEL
  GI50: > 100 µM (inactive)
